For series [1] the following is noted: amine bond.
Series [2] has as its system SUDHL5. Put plainly: Induction of cytotoxicity (Assay 6), SUDHL5. The settings on record: read-out: Cytotox SUDHL5 [M] (median) IC50, CellTiter-Glo, 5 hours, SUDHL5.
The subject of series [3] is SUDHL10. Description: Induction of cytotoxicity (Assay 6), SUDHL10. The settings on record: read-out: Cytotox SUDHL10 [M] (median) IC50, CellTiter-Glo, 5 hours, SUDHL10.
The subject of a further series is MV-4-11. Description: Antiproliferation assay (Assay 7), MV-4-11. Type of series: cell-based. The settings on record: CellTiter-Glo, several values per example. How it is done:
(§1) Assessment of the Anti-Proliferative Effect of Compounds in Different Cell Lines
(§2) The impact of compounds on the proliferation of different cell lines was assessed using the CellTiter-Glo® Luminescent Cell Viability reagent from Promega (G7573).
(§3) In parallel, cells were plated in a reference (day 0) plate for time zero determination.
(§4) Rim wells were excluded. The cells were incubated for 72 hours in a humidified incubator at 37° C. The day 0 plate was measured by adding 30 μL/well of CTG solution (CellTiter-Glo® Luminescent Cell Viability reagent, Promega G7573) to time zero wells in the reference plate followed by a 10 minutes incubation and luminescence reading at 0.1 ms. using the PHERAstar FS microplate reader (BMG Labtech).
(§5) After 72 hours incubation, the treated plates were measured in the same way as the day 0 plate mentioned above.

The target of the next series is MCL-1 (Homo sapiens (Human), UniProt Q07820, K194A/K197A/R201A). Description: Protein-protein interaction assay MCL-1/Noxa BH3 peptide (MCL-1 assay, TR-FRET). Type of series: binding. The note with it: MBP-MCL-1 / Noxa BH3 peptide, median. How it is done: Protein-Protein Interaction Assay: MCL-1/Noxa BH3 Peptide (MCL-1 Assay)
Sequence of MCL-1 (Q07820 whole entry K194A/K197A/R201A, looked up, the tested form may be a part): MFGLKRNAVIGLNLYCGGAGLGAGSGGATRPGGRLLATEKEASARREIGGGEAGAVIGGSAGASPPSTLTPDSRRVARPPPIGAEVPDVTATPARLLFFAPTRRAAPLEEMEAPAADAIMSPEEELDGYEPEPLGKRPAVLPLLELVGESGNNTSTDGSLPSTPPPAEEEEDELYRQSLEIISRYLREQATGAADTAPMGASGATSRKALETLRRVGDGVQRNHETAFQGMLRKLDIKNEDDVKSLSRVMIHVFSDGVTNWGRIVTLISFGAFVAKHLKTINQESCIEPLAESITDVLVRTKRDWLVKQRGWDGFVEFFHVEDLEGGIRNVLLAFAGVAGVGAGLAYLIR
The dose-dependent inhibition by the compounds described in this invention of the interaction between MCL-1 and the BH3 domain of Noxa (both human) was determined using a steady state binding competition assay with time-resolved fluorescence energy transfer (TR-FRET) readout. For that purpose MCL-1 (amino acids 173-329, N-terminal fused to Maltose Binding Protein (MBP) SEQ ID 1) and a synthetic Noxa BH3-derived peptide of sequence Biotin-PEG2-PEG2-PAELEVE-Nva-ATQLRRFGDKLNFRQKLL-amide (SEQ ID 2) served as protein receptor and tracer ligand respectively. The MBP-MCL-1 was purchased from Beryllium (Bedford, Mass., USA). The expression and purification of this protein construct has been described elsewhere (DOI:10.1371/journal.pone.0125010). The Noxa BH3-derived peptide can be obtained from e.g. Biosyntan (Berlin, Germany).
In the assay 11 different concentrations of each compound (0.1 nM, 0.33 nM, 1.1 nM, 3.8 nM, 13 nM, 44 nM, 0.15 μM, 0.51 μM, 1.7 μM, 5.9 μM and 20 μM) were typically measured as duplicates in the same microtiter plate. For that, 100-fold concentrated DMSO solutions were prepared by serial dilutions (1:3.4) of a 2 mM stock solution in a clear, 384-well microtiter plate (Greiner Bio-One, Frickenhausen, Germany). From there, 50 nl were transferred in a dark test plate (Greiner Bio-One, Frickenhausen, Germany). The assay was initiated by addition of 2 μl of a 2.5-fold concentrated MBP-MCL-1 solution (usually for a 1 nM end concentration in 5 μl reaction volume) in aqueous assay buffer [50 mM Tris/HCl pH 7, 100 mM sodium chloride (NaCl), 50 mM potassium fluoride (KF), 0.005% Tween-20, 2 mM DTT, 0.1% bovine gamma globulin (BGG)] to the compounds in the assay plate. This was followed by a 10-minute incubation step at 22° C. for pre-equilibration of the putative complex between MBP-MCL-1 and the compounds. After that, 3 μl of a 1.67-fold concentrated solution (in assay buffer) consisting of Noxa BH3-derived peptide (1 nM end concentration) and TR-FRET detection reagents [1.67 nM anti-MBP-Eu cryptate and 1.67 nM streptavidin-XL665 (both from Cisbio Bioassays, Codolet, France)], were added.
The mixture was incubated in the dark for one hour at 22° C. and then overnight at 4° C. The formation of MCL-1/Noxa complexes was determined by measuring the resonance energy transfer of the anti-MBP-Eu-cryptate antibody to the streptavidin-XL665 present in the reaction. For that purpose, the fluorescence emission at 620 nm and 665 nm after excitation at 330-350 nm was measured in a TR-FRET measuring instrument, for instance a Rubystar or a Pherastar (both from BMG Lab Technologies, Offenburg, Germany) or a Viewlux (Perkin-Elmer). The ratio of the emission at 665 nm and at 622 nm was used as indicator of the amount of MCL-1/NOXA complexes present.
The resulting data (ratio) were normalized, taking 0% inhibition as the mean value of control measurements (usually 32 data points) where all reagents were included. In this case 50 nl DMSO were used instead of compounds. A 100% inhibition corresponded to the mean value of control measurements (usually 32 data points) where all reagents except MCL-1 were included. IC50 values were determined by regression analysis based on a 4 parameter equation (minimum, maximum, IC50, Hill; Y=Max+(Min−Max)/(1+(X/IC50)^HiII) using the Screener Software (Genedata).

Series [4] relates to SUDHL10. Description: Induction of caspase-3/7 activity (Assay 4), SUDHL10. The series is classed as cell-based. The note with it: caspase-3/7 induction, median. How it is done: (§6) Cellular Assays Assay 4 Induction of Caspase-3/7 Activity Upon Treatment of Cells with Selected Compounds
(§7) The BH3-domain of MCL-1 sequesters pro-apoptotic proteins, thereby inhibiting apoptosis. In contrast, MCL-1 inhibitors are expected to antagonize this effect leading to an increase in apoptosis, which can be determined by measuring the activity of caspase-3/7.
(§8) The activity of caspase-3/7 was determined in DLBCL (Diffuse large B-cell lymphoma) cell lines (SUDHL5 and SUDHL10) upon treatment with different compounds, using the Caspase-Glo® 3/7 reagent from Promega (G8092).
(§9) Rim wells were excluded. The cells were incubated for 3 hours in a humidified incubator at 37° C.
(§10) For the evaluation of the results, the background measured with “medium-only” was subtracted from all other values. […] The Bella DRC Master Sheet was used to calculate EC50s, with fixed C0=1 and CI=plateau/max induction for the reference compound.

Series [5] deals with SUDHL5. Put plainly: Antiproliferation assay (Assay 7), SUDHL5. The series is classed as cell-based. The settings on record: CellTiter-Glo, median, read-out: Antiproli SUDHL5 [M] (median) IC50. How it is done: as §1, §2, §3, §4, §5
Series [6] deals with SUDHL5. Put plainly: Induction of caspase-3/7 activity (Assay 4), SUDHL5. The note with it: caspase-3/7 induction, median. Type of series: cell-based. The method, then:
as §6, §7, §8, §9, §10

Another series has as its system A2780. Put plainly: Antiproliferation assay (Assay 7), A2780. The settings on record: CellTiter-Glo, several values per example. The series is classed as cell-based. The method, then: as §1, §2, §3, §4, §5
Series [7] has as its system SUDHL10.
In series [8] the test system is SUDHL5.
The mark [9] stands for this setting: Homo sapiens, MV4-11, 72 h, read-out: Antiproli MV-4-11 [M] IC50.
Where [10] appears, read: Homo sapiens, A2780, 72 h, read-out: Antiproli A2780 [M] IC50.

Among the data in patent publication US11401278B2, “Macrocyclic indole derivatives” (The Broad Institute, Inc., priority 2017, dated 2022) are ring closure, yield of all isomers, IC50 and EC50 values, retold here.

pIC50: −log10 of the molar value. Structures can show the parent of a compound that is named as a salt. Where two headings read alike, the source gives them in different places.

In series [1] (from CCOC(=O)c1[nH]c2c(-c3c(CN(CCN4CCOCC4)S(=O)(=O)CCCCl)nn(C)c3CC)c(Cl)ccc2c1CCCOc1cccc2cc(F)ccc12, cesium carbonate, acetonitrile, 50.3 mM, 40.0 °C, 48.0 h), `CCOC(=O)c1c(CCCOc2cccc3cc(F)ccc23)c2ccc(Cl)c3c2n1CCCS(=O)(=O)N(CCN1CCOCC1)Cc1nn(C)c(CC)c1-3` displayed a ring closure, yield of all isomers of 90.3%.

Compound `CCOC(=O)c1c(CCCOc2cccc3cc(F)ccc23)c2ccc(Cl)c3c2n1CCCS(=O)(=O)N(Cc1ccc(OC)cc1OC)Cc1nn(C)c(C)c1-3` registered a ring closure, yield of all isomers in series [1] (from CCOC(=O)c1[nH]c2c(-c3c(CN(Cc4ccc(OC)cc4OC)S(=O)(=O)CCCCl)nn(C)c3C)c(Cl)ccc2c1CCCOc1cccc2cc(F)ccc12, cesium carbonate, acetonitrile, 51.5 mM, 60.0 °C, 16.0 h) of 48%.

Compound `CCOC(=O)c1c(CCCOc2cccc3ccccc23)c2cccc3c2n1CCCS(=O)(=O)N(CCN1CCCCC1)Cc1nn(C)c(CC)c1-3` came in with a ring closure, yield of all isomers in series [1] (from CCOC(=O)c1[nH]c2c(-c3c(CN(CCN4CCCCC4)S(=O)(=O)CCCCl)nn(C)c3CC)cccc2c1CCCOc1cccc2ccccc12, NaH, DMF, 25.0 mM, 60.0 °C, 21.0 h) of 69%.

In the case of `CCOC(=O)c1c(CCCOc2cccc3cc(F)ccc23)c2ccc(Cl)c3c2n1CCCS(=O)(=O)N(C)C(CCC1CCOCC1)c1nn(C)c(CC)c1-3` (racemic), the ring closure, yield of all isomers in [1] (from CCOC(=O)c1[nH]c2c(-c3c(C(CCC4CCOCC4)N(C)S(=O)(=O)CCCCl)nn(C)c3CC)c(Cl)ccc2c1CCCOc1cccc2cc(F)ccc12, cesium carbonate, acetonitrile, 34.4 mM, 60.0 °C, 48.0 h) worked out at 77%.

In the case of `CCOC(=O)c1c(CCCOc2cccc3cc(F)ccc23)c2ccc(Cl)c3c2n1CCCS(=O)(=O)N(C)C(CCN1CCOCC1)c1nn(C)c(CC)c1-3` (racemic), the ring closure, yield of all isomers in series [1] (from CCOC(=O)c1[nH]c2c(-c3c(C(CCN4CCOCC4)N(C)S(=O)(=O)CCCCl)nn(C)c3CC)c(Cl)ccc2c1CCCOc1cccc2cc(F)ccc12, cesium carbonate, acetonitrile, 49.5 mM, 60.0 °C, 48.0 h) was found to be 44.9%.

Regarding `CCOC(=O)c1c(CCCOc2cccc3ccccc23)c2cccc3c2n1CCCS(=O)(=O)N(C)C(C)c1nn(C)c(CC)c1-3` (racemic), in series [1] (from CCOC(=O)c1[nH]c2c(-c3c(C(C)N(C)S(=O)(=O)CCCCl)nn(C)c3CC)cccc2c1CCCOc1cccc2ccccc12, Cs2CO3, MeCN, 50.0 mM, 60.0 °C, 18.0 h), the ring closure, yield of all isomers amounted to 81.9%.

On to `Cc1c2c(nn1C)CN(C)S(=O)(=O)CCCC1C(C(=O)O)=C(CCCOc3cccc4ccccc34)c3cccc-2c31` (racemic) [Example 10, (rac)-2,3,14-Trimethyl-7-[3-(1-naphthyloxy)propyl]-11,12,14,15-tetrahydro-2H,10H-pyrazolo[3′,4′:4,5][1,2,8]thiadiazacycloundecino[6,7,8-hi]indole-8-carboxylic acid 13,13-dioxide], for which the 50% inhibitory concentration (IC50) with SUDHL5 [2] (Homo sapiens, SU-DHL-5, 5 h) worked out at 3.8e-06 M; in the series on SUDHL10 [3] (Homo sapiens, SU-DHL10, 5 h) it was 1.2e-05 M; in the series with MV-4-11 (72 hours, read-out: Antiproli MV-4-11 [M] IC50), 1.28e-05 M; in the series with MV-4-11 (setting [9]), 1.54e-05 M; at MCL-1, 7.4 nM; in the series on SUDHL5 [5] (Homo sapiens, SU-DHL-5, 72 h) it was 3.8e-06 M. Further, the IC50 was more than 3.3e-05 M in the series with A2780 (72 hours, read-out: Antiproli A2780 [M] IC50) and 1.68e-05 M in the series on A2780 (setting [10]). Further, the EC50 in the series on SUDHL10 [4] (Homo sapiens, SU-DHL10, 3 h) came to 14 µM; in the series on SUDHL5 [6] (Homo sapiens, SU-DHL-5, 3 h), 3.1 µM.

In the case of `CCc1c2c(nn1C)C(CCN1CCOCC1)N(C)S(=O)(=O)CCCn1c(C(=O)O)c(CCCOc3cccc4cc(F)ccc34)c3ccc(Cl)c-2c31` (single isomer, unassigned) [Example 72, 4-chloro-3-ethyl-7-{3-[(6-fluoronaphthalen-1-yl)oxy]propyl}-2,14-dimethyl-15-[2-(morpholin-4-yl)ethyl]-13,13-dioxo-10,11,12,13,14,15-hexahydro-2H-13lambda6-pyrazolo[3′,4′:4,5][1,2,8]thiadiazacycloundecino[6,7,8-hi]indole-8-carboxylic acid (Mixture of Stereoisomers)], the pIC50 in the series with SUDHL10 [7] was 7.47; in the series with SUDHL5 [8], 8.06. Moreover, the IC50 at MCL-1 was 1.1 nM. The EC50 on SUDHL10 [4] (3 hours) was found to be 0.027 µM; on SUDHL5 [6] (3 hours) it was 0.015 µM.

Consider `Cc1c2c(nn1C)CN(CCN1CCOCC1)S(=O)(=O)CCCn1c(C(=O)O)c(CCCOc3cccc4ccccc34)c3cccc-2c31` (single isomer, unassigned; enantiomer 1) [Example 2, 2,3-Dimethyl-14-[2-(morpholin-4-yl)ethyl]-7-{3-[(naphthalen-1-yl)oxy]propyl}-13,13-dioxo-10,11,12,13,14,15-hexahydro-2H-13λ^6-pyrazolo[3′,4′:4,5][1,2,8]thiadiazacycloundecino-[6,7,8-hi]indole-8-carboxylic acid-N-ethylethanamine salt (Enantiomer 1)], for which the IC50 with SUDHL5 [2] was determined as 3.5e-06 M; in the series on SUDHL10 [3], 9.8e-06 M; with MV-4-11 (72 hours, listed as 02, read-out: Antiproli MV-4-11 [M] IC50), 8.63e-06 M; with MV-4-11 (setting [9]) it was 1.17e-05 M; at MCL-1, 3.4 nM; with SUDHL5 [5] (72 hours) it was 4.4e-06 M. Besides, the half-maximal inhibitory concentration (IC50) is more than 3.3e-05 M with A2780 (72 hours, listed as 02, read-out: Antiproli A2780 [M] IC50) and 2.66e-05 M in the series on A2780 (setting [10]). Moreover, the figures for the EC50 in the series on SUDHL10 [4] (3 hours) and with SUDHL5 [6] (3 hours) were 11 µM and 3.9 µM, respectively.
